{"source": "patent US9695155B2", "about": "“Herbicidal substituted pyrimidinyloxy benzene compounds” (E. I. DU PONT DE NEMOURS AND COMPANY, priority 2013, dated 2017)", "key": {"[1]": {"test_system": "johnsongrass", "experiment": "Test C preemergence", "format": "in vivo, Sorghum halepense", "settings": "Sorghum halepense, pre-emergence", "how_it_was_run": "(§1)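 Whole-plant greenhouse test with surfactant-containing solvent formulation, applied preemergence to sown loam–sand pots or postemergence to 2–18 cm plants. Scored by eye 13 to 15 days on, 0–100 scale.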"}, "[2]": {"test_system": "yellow nutsedge", "experiment": "Test C postemergence", "format": "in vivo, Cyperus esculentus", "how_it_was_run": "as §1"}, "[3]": {"test_system": "giant foxtail", "experiment": "Test C postemergence", "format": "in vivo, Setaria faberii", "settings": "Setaria faberi, post-emergence", "how_it_was_run": "as §1"}, "[4]": {"test_system": "giant foxtail", "experiment": "Test C preemergence", "format": "in vivo, Setaria faberii", "settings": "Setaria faberi, pre-emergence", "how_it_was_run": "as §1"}, "[5]": {"test_system": "waterhemp", "experiment": "Test C postemergence", "format": "in vivo, Amaranthus rudis", "how_it_was_run": "as §1"}, "[6]": {"test_system": "yellow nutsedge", "experiment": "Test C preemergence", "format": "in vivo, Cyperus esculentus", "settings": "Cyperus, pre-emergence", "how_it_was_run": "as §1"}, "[7]": {"test_system": "galium", "experiment": "Test C preemergence", "format": "in vivo, Galium aparine", "settings": "Galium, pre-emergence", "how_it_was_run": "as §1"}, "[8]": {"test_system": "lambsquarters", "experiment": "Test C preemergence", "format": "in vivo, Chenopodium album", "settings": "Chenopodium album, pre-emergence", "how_it_was_run": "as §1"}, "[9]": {"test_system": "johnsongrass", "experiment": "Test C postemergence", "format": "in vivo, Sorghum halepense", "settings": "Sorghum halepense, post-emergence", "how_it_was_run": "as §1"}, "[10]": {"test_system": "soybean", "experiment": "Test C postemergence", "format": "in vivo, Glycine max", "how_it_was_run": "as §1"}, "[11]": {"test_system": "giant foxtail", "experiment": "Test A preemergence", "format": "in vivo, Setaria faberii", "how_it_was_run": "(§2)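 Pre- and postemergence greenhouse screen. Soil: loam + sand. Spray carrier: solvent mixture, non-phytotoxic, with surfactant. Post timing at 1–2 leaves, height 2–10 cm. Readout: visual injury on a 0–100 scale roughly 10 days after application, untreated plants as reference.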"}, "[12]": {"test_system": "large (Lg) crabgrass", "experiment": "Test A postemergence", "format": "in vivo, Digitaria sanguinalis", "settings": "0 to 100 scale where 0 is no effect and 100 is complete control", "how_it_was_run": "as §2"}, "[13]": {"test_system": "large (Lg) crabgrass", "experiment": "Test C preemergence", "format": "in vivo, Digitaria sanguinalis", "settings": "Digitaria sanguinalis, pre-emergence", "how_it_was_run": "as §1"}, "[14]": {"test_system": "chickweed", "experiment": "Test C postemergence", "format": "in vivo, Stellaria media", "settings": "Stellaria media, post-emergence", "how_it_was_run": "as §1"}, "[15]": {"settings": "31 g ai/ha, postemergence, visual rating, scale 0 to 100 (0 no effect, 100 complete control), 13 to 15 days"}}, "data": [{"smiles": "FC(F)c1cccc(Oc2ncc(Cl)cn2)c1-n1cc(Br)cn1", "note": "[Compound 194, 2-[2-(4-bromo-1H-pyrazol-1-yl)-3-(difluoromethyl)phenoxy]-5-chloropyrimidine]", "values": [{"measurement": "pest or weed control at 125 g/ha", "setting": "[1]; 125 g ai/ha, preemergence, scale 0 (no effect) to 100 (complete control), read-out: Johnsongrass plant response rating", "value": 80, "unit": "%"}, {"measurement": "pest or weed control at 250 g/ha", "setting": "[1]; 250 g ai/ha, preemergence, scale 0 (no effect) to 100 (complete control), read-out: Johnsongrass plant response rating", "value": 95, "unit": "%"}, {"measurement": "pest or weed control at 62 g/ha", "setting": "[1]; Preemergence, 62 g ai/ha, scale 0 to 100, 0 no effect, 100 complete control, read-out: Plant response rating, Johnsongrass", "value": 25, "unit": "%"}, {"measurement": "Nutsedge, Yellow plant response rating", "setting": "[2]; [15]", "value": 5}, {"measurement": "pest or weed control at 125 g/ha", "setting": "[2]; Cyperus, post-emergence, 125 g ai/ha, postemergence, visual rating, scale 0 to 100 (0 no effect, 100 complete control), read-out: Plant response rating, Nutsedge, Yellow", "value": 5, "unit": "%"}, {"measurement": "pest or weed control at 250 g/ha", "setting": "[2]; Cyperus, post-emergence, 250 g ai/ha, postemergence, read-out: Plant response rating (0 to 100), Nutsedge, Yellow", "value": 5, "unit": "%"}, {"measurement": "pest or weed control at 62 g/ha", "setting": "[2]; Cyperus, post-emergence, Postemergence, 62 g ai/ha, scale 0 to 100 (0 no effect, 100 complete control), 13 to 15 days, read-out: Plant response rating, Nutsedge, Yellow", "value": 5, "unit": "%"}, {"measurement": "pest or weed control at 31 g/ha", "setting": "[3]; 31 g ai/ha, postemergence, visual rating, scale 0 to 100 (0 no effect, 100 complete control), 13 to 15 days, read-out: Foxtail, Giant plant response rating", "value": 10, "unit": "%"}, {"measurement": "pest or weed control at 125 g/ha", "setting": "[3]; 125 g ai/ha, postemergence, visual rating, scale 0 to 100 (0 no effect, 100 complete control), read-out: Plant response rating, Foxtail, Giant", "value": 15, "unit": "%"}, {"measurement": "pest or weed control at 250 g/ha", "setting": "[3]; 250 g ai/ha, postemergence, read-out: Plant response rating (0 to 100), Foxtail, Giant", "value": 15, "unit": "%"}, {"measurement": "pest or weed control at 62 g/ha", "setting": "[3]; Postemergence, 62 g ai/ha, scale 0 to 100 (0 no effect, 100 complete control), 13 to 15 days, read-out: Plant response rating, Foxtail, Giant", "value": 10, "unit": "%"}, {"measurement": "pest or weed control at 125 g/ha", "setting": "[4]; 125 g ai/ha, preemergence, scale 0 (no effect) to 100 (complete control), read-out: Foxtail, Giant plant response rating", "value": 100, "unit": "%"}, {"measurement": "pest or weed control at 250 g/ha", "setting": "[4]; 250 g ai/ha, preemergence, scale 0 (no effect) to 100 (complete control), read-out: Foxtail, Giant plant response rating", "value": 100, "unit": "%"}, {"measurement": "pest or weed control at 62 g/ha", "setting": "[4]; Preemergence, 62 g ai/ha, scale 0 to 100, 0 no effect, 100 complete control, read-out: Plant response rating, Foxtail, Giant", "value": 90, "unit": "%"}, {"measurement": "Waterhemp plant response rating", "setting": "[5]; [15]", "value": 80}, {"measurement": "pest or weed control at 125 g/ha", "setting": "[5]; Amaranthus tuberculatus, post-emergence, 125 g ai/ha, postemergence, visual rating, scale 0 to 100 (0 no effect, 100 complete control), read-out: Plant response rating, Waterhemp", "value": 85, "unit": "%"}, {"measurement": "pest or weed control at 250 g/ha", "setting": "[5]; Amaranthus tuberculatus, post-emergence, 250 g ai/ha, postemergence, read-out: Plant response rating (0 to 100), Waterhemp", "value": 90, "unit": "%"}, {"measurement": "pest or weed control at 62 g/ha", "setting": "[5]; Amaranthus tuberculatus, post-emergence, Postemergence, 62 g ai/ha, scale 0 to 100 (0 no effect, 100 complete control), 13 to 15 days, read-out: Plant response rating, Waterhemp", "value": 80, "unit": "%"}, {"measurement": "pest or weed control at 125 g/ha", "setting": "[6]; 125 g ai/ha, preemergence, scale 0 (no effect) to 100 (complete control), read-out: Nutsedge, Yellow plant response rating", "value": 0, "unit": "%"}, {"measurement": "pest or weed control at 250 g/ha", "setting": "[6]; 250 g ai/ha, preemergence, scale 0 (no effect) to 100 (complete control), read-out: Nutsedge, Yellow plant response rating", "value": 25, "unit": "%"}, {"measurement": "pest or weed control at 62 g/ha", "setting": "[6]; Preemergence, 62 g ai/ha, scale 0 to 100, 0 no effect, 100 complete control, read-out: Plant response rating, Nutsedge, Yellow", "value": 0, "unit": "%"}, {"measurement": "pest or weed control at 125 g/ha", "setting": "[7]; 125 g ai/ha, preemergence, scale 0 (no effect) to 100 (complete control), read-out: Galium plant response rating", "value": 90, "unit": "%"}, {"measurement": "pest or weed control at 250 g/ha", "setting": "[7]; 250 g ai/ha, preemergence, scale 0 (no effect) to 100 (complete control), read-out: Galium plant response rating", "value": 100, "unit": "%"}, {"measurement": "pest or weed control at 62 g/ha", "setting": "[7]; Preemergence, 62 g ai/ha, scale 0 to 100, 0 no effect, 100 complete control, read-out: Plant response rating, Galium", "value": 90, "unit": "%"}, {"measurement": "pest or weed control at 125 g/ha", "setting": "[8]; 125 g ai/ha, preemergence, scale 0 (no effect) to 100 (complete control), read-out: Lambsquarters plant response rating", "value": 100, "unit": "%"}, {"measurement": "pest or weed control at 250 g/ha", "setting": "[8]; 250 g ai/ha, preemergence, scale 0 (no effect) to 100 (complete control), read-out: Lambsquarters plant response rating", "value": 100, "unit": "%"}, {"measurement": "pest or weed control at 62 g/ha", "setting": "[8]; Preemergence, 62 g ai/ha, scale 0 to 100, 0 no effect, 100 complete control, read-out: Plant response rating, Lambsquarters", "value": 100, "unit": "%"}, {"measurement": "pest or weed control at 125 g/ha", "setting": "[9]; 125 g ai/ha, postemergence, visual rating, scale 0 to 100 (0 no effect, 100 complete control), read-out: Plant response rating, Johnsongrass", "value": 25, "unit": "%"}, {"measurement": "pest or weed control at 250 g/ha", "setting": "[9]; 250 g ai/ha, postemergence, read-out: Plant response rating (0 to 100), Johnsongrass", "value": 35, "unit": "%"}, {"measurement": "pest or weed control at 62 g/ha", "setting": "[9]; Postemergence, 62 g ai/ha, scale 0 to 100 (0 no effect, 100 complete control), 13 to 15 days, read-out: Plant response rating, Johnsongrass", "value": 5, "unit": "%"}, {"measurement": "Soybean plant response rating", "setting": "[10]; [15]", "value": 30}, {"measurement": "Soybean plant response rating (crop injury, 0-100 scale) at 125 g/ha", "setting": "[10]; Glycine max, post-emergence, 125 g ai/ha, postemergence, visual rating, scale 0 to 100 (0 no effect, 100 complete control), read-out: Plant response rating, Soybean", "value": 75, "unit": "%"}, {"measurement": "Soybean plant response rating (crop injury, 0-100 scale) at 250 g/ha", "setting": "[10]; Glycine max, post-emergence, 250 g ai/ha, postemergence", "value": 85, "unit": "%"}, {"measurement": "Soybean plant response rating (crop injury, 0-100 scale) at 62 g/ha", "setting": "[10]; Glycine max, post-emergence, Postemergence, 62 g ai/ha, scale 0 to 100 (0 no effect, 100 complete control), 13 to 15 days", "value": 50, "unit": "%"}, {"measurement": "Foxtail, Giant plant response rating (0 to 100 scale)", "setting": "[11]; 125 g ai/ha", "value": 100}, {"measurement": "pest or weed control at 500 g/ha", "setting": "[11]; Setaria faberi, pre-emergence, 240 h, 500 g ai/ha, 0 to 100 scale where 0 is no effect and 100 is complete control, read-out: Foxtail, Giant plant response rating", "value": 100, "unit": "%"}, {"measurement": "Crabgrass, Large plant response rating", "setting": "[12]; 125 g ai/ha", "value": 90}, {"measurement": "pest or weed control at 500 g/ha", "setting": "[12]; Digitaria sanguinalis, post-emergence, 240 h, 500 g ai/ha, read-out: Plant response rating, Crabgrass, Large", "value": 100, "unit": "%"}, {"measurement": "pest or weed control at 125 g/ha", "setting": "[13]; 125 g ai/ha, preemergence, scale 0 (no effect) to 100 (complete control), read-out: Crabgrass, Large plant response rating", "value": 100, "unit": "%"}, {"measurement": "pest or weed control at 250 g/ha", "setting": "[13]; 250 g ai/ha, preemergence, scale 0 (no effect) to 100 (complete control), read-out: Crabgrass, Large plant response rating", "value": 100, "unit": "%"}, {"measurement": "pest or weed control at 62 g/ha", "setting": "[13]; Preemergence, 62 g ai/ha, scale 0 to 100, 0 no effect, 100 complete control, read-out: Plant response rating, Crabgrass, Large", "value": 98, "unit": "%"}, {"measurement": "pest or weed control at 31 g/ha", "setting": "[14]; 31 g ai/ha, postemergence, visual rating, scale 0 to 100 (0 no effect, 100 complete control), 13 to 15 days, read-out: Chickweed plant response rating", "value": 50, "unit": "%"}, {"measurement": "pest or weed control at 125 g/ha", "setting": "[14]; 125 g ai/ha, postemergence, visual rating, scale 0 to 100 (0 no effect, 100 complete control), read-out: Plant response rating, Chickweed", "value": 70, "unit": "%"}, {"measurement": "pest or weed control at 250 g/ha", "setting": "[14]; 250 g ai/ha, postemergence, read-out: Plant response rating (0 to 100), Chickweed", "value": 85, "unit": "%"}, {"measurement": "pest or weed control at 62 g/ha", "setting": "[14]; Postemergence, 62 g ai/ha, scale 0 to 100 (0 no effect, 100 complete control), 13 to 15 days, read-out: Plant response rating, Chickweed", "value": 70, "unit": "%"}]}]}
